In PubChem BioAssay AID212 (DTP/NCI, 2004):
“And” between values parts separate entries of the source, which are not always exact repeats. Identical values can stand only once. Results filed as inconclusive are left out.

System: BDF1 mice, colon carcinoma 38 sc, T/C %
Assay: NCI In Vivo Anticancer Drug Screen. Data for tumor model Colon Carcinoma 38 (subcutaneous) in B6D2F1 (BDF1) mice
Settings: endpoint: median tumor weight (est.), higher = larger tumour
Summary of the method: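 Compound antitumor activity was assessed in mice carrying transplantable tumors. Survival or tumor size was recorded, and each value is the treated-group measurement divided by that of the vehicle-treated control group.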

[1] = dose: 50.0 mg/kg/injection, schedule: Q07DX002 (ip), vehicle: Klucel (hydroxypropylcellulose) (HPC)
[2] = dose: 100.0 mg/kg/injection, schedule: Q07DX002 (ip), vehicle: Klucel (hydroxypropylcellulose) (HPC)
[3] = dose: 25.0 mg/kg/injection, schedule: Q07DX002 (ip), vehicle: Klucel (hydroxypropylcellulose) (HPC)
[4] = dose: 200.0 mg/kg/injection, schedule: Q07DX002 (ip), vehicle: Klucel (hydroxypropylcellulose) (HPC)
[5] = dose: 400.0 mg/kg/injection, schedule: Q07DX002 (ip), vehicle: Klucel (hydroxypropylcellulose) (HPC)
[6] = dose: 6.25 mg/kg/injection, schedule: Q07DX002 (ip), vehicle: saline
[7] = dose: 12.5 mg/kg/injection, schedule: Q07DX002 (ip), vehicle: saline
[8] = dose: 25.0 mg/kg/injection, schedule: Q07DX002 (ip), vehicle: saline with Tween-80
[9] = dose: 50.0 mg/kg/injection, schedule: Q07DX002 (ip), vehicle: saline with Tween-80
[10] = dose: 100.0 mg/kg/injection, schedule: Q07DX002 (ip), vehicle: saline with Tween-80
[11] = dose: 200.0 mg/kg/injection, schedule: Q07DX002 (ip), vehicle: saline with Tween-80
[12] = dose: 25.0 mg/kg/injection, schedule: Q07DX002 (ip), vehicle: saline
[13] = dose: 50.0 mg/kg/injection, schedule: Q07DX002 (ip), vehicle: saline
[14] = dose: 200.0 mg/kg/injection, schedule: Q07DX002 (ip), vehicle: saline
[15] = dose: 12.5 mg/kg/injection, schedule: Q07DX002 (ip), vehicle: saline with Tween-80
[16] = dose: 50.0 mg/kg/injection, schedule: Q07DX002 (ip), vehicle: water

In the case of `O=C(O)Cc1cccc2c(=O)cc(-c3ccccc3)oc12`, the T/C (dose: 47.3 mg/kg/injection, schedule: Q03HX004 (ip), vehicle: clinical formulation) is reported as 124 % of control, the T/C [1] is reported as 79 % of control and the T/C (dose: 50.0 mg/kg/injection, schedule: Q07DX002 (ip), vehicle: sodium bicarbonate) is reported as 46 % of control. The T/C (dose: 63.0 mg/kg/injection, schedule: Q03HX004 (ip), vehicle: clinical formulation) was 89 % of control, the T/C (dose: 63.0 mg/kg/injection, schedule: Q07DX002 (ip), vehicle: sodium bicarbonate) was 70 % of control and the T/C (dose: 63.0 mg/kg/injection, schedule: Q07DX002 (iv), vehicle: sodium bicarbonate) was 120 % of control. For the same compound, the T/C (dose: 84.0 mg/kg/injection, schedule: Q03HX004 (ip), vehicle: clinical formulation) was 19 % of control, the T/C (dose: 84.0 mg/kg/injection, schedule: Q06HX002 (ip), vehicle: clinical formulation) was 80 % of control and the T/C (dose: 84.0 mg/kg/injection, schedule: Q07DX002 (ip), vehicle: saline) was 103 % of control. For the same compound, the T/C (dose: 84.0 mg/kg/injection, schedule: Q07DX002 (ip), vehicle: sodium bicarbonate) was 46 % of control, the T/C (dose: 84.0 mg/kg/injection, schedule: Q07DX002 (iv), vehicle: sodium bicarbonate) was 122 % of control and the T/C [2] was 4 % of control. For the same compound, the T/C (dose: 100.0 mg/kg/injection, schedule: Q07DX002 (ip), vehicle: sodium bicarbonate) was 73 % of control, the T/C (dose: 112.0 mg/kg/injection, schedule: Q01DX001 (ip), vehicle: clinical formulation) was 72 % of control and the T/C (dose: 112.0 mg/kg/injection, schedule: Q06HX002 (ip), vehicle: clinical formulation) was 29 % of control. For the same compound, the T/C (dose: 112.0 mg/kg/injection, schedule: Q07DX002 (ip), vehicle: clinical formulation) was 44 % of control, the T/C (dose: 112.0 mg/kg/injection, schedule: Q07DX002 (ip), vehicle: saline) was 13 % of control and the T/C (dose: 112.0 mg/kg/injection, schedule: Q07DX002 (ip), vehicle: sodium bicarbonate) was 90 % of control. For the same compound, the T/C (dose: 112.0 mg/kg/injection, schedule: Q07DX002 (iv), vehicle: sodium bicarbonate) was 100 % of control, the T/C (dose: 150.0 mg/kg/injection, schedule: Q01DX001 (ip), vehicle: clinical formulation) was 22 % of control and the T/C (dose: 150.0 mg/kg/injection, schedule: Q07DX002 (ip), vehicle: saline) was 2 % of control. For the same compound, the T/C (dose: 150.0 mg/kg/injection, schedule: Q07DX002 (ip), vehicle: sodium bicarbonate) was 67 % of control, the T/C (dose: 150.0 mg/kg/injection, schedule: Q07DX002 (iv), vehicle: sodium bicarbonate) was 15 % of control and the T/C (dose: 200.0 mg/kg/injection, schedule: Q07DX002 (ip), vehicle: sodium bicarbonate) was 42 % of control. The T/C (dose: 267.0 mg/kg/injection, schedule: Q07DX002 (ip), vehicle: saline) was 1 % of control.
With `ClC1C(Cl)C(Cl)C(Cl)C(Cl)C1Cl` (centres undefined) the T/C [3] was 103 % of control, the T/C [1] was 88 % of control and the T/C (dose: 56.0 mg/kg/injection, schedule: Q07DX002 (ip), vehicle: saline with Tween-80) was 109 % of control and 95 % of control. For the same compound, the T/C [2] was 71 % of control, the T/C (dose: 112.0 mg/kg/injection, schedule: Q07DX002 (ip), vehicle: saline with Tween-80) was 69 % of control and 82 % of control and the T/C [4] was 113 % of control. The T/C [5] was 118 % of control and the T/C (dose: 450.0 mg/kg/injection, schedule: Q07DX002 (ip), vehicle: saline with Tween-80) was 80 % of control and 85 % of control.
For `CCCNC1=C(C)C(=O)C2=C(C1=O)[C@H](COC(N)=O)[C@]1(OC)[C@@H]3N[C@@H]3CN21`, the T/C (dose: 0.78 mg/kg/injection, schedule: Q07DX002 (ip), vehicle: saline) was 72 % of control, the T/C (dose: 1.56 mg/kg/injection, schedule: Q07DX002 (ip), vehicle: saline) was 85 % of control and the T/C (dose: 3.12 mg/kg/injection, schedule: Q07DX002 (ip), vehicle: saline) was 84 % of control. For the same compound, the T/C (dose: 6.0 mg/kg/injection, schedule: Q07DX002 (ip), vehicle: suspension in saline) was 84 % of control, the T/C [6] was 25 % of control and the T/C (dose: 12.0 mg/kg/injection, schedule: Q07DX002 (ip), vehicle: suspension in saline) was 34 % of control. The T/C [7] was 6 % of control.
`COc1cc(C(=O)N/N=C/c2cccc([N+](=O)[O-])c2)cc(OC)c1OC` was tested, and the T/C [8] was 93 % of control, the T/C [9] was 124 % of control and the T/C [10] was 107 % of control. For the same compound, the T/C [11] was 101 % of control.
For `O=C1C=CC(=O)O1` (tested in a mixture with another compound), the T/C [7] was 155 % of control, the T/C [12] was 106 % of control and the T/C [13] was 90 % of control. The T/C (dose: 100.0 mg/kg/injection, schedule: Q07DX002 (ip), vehicle: saline) was 100 % of control, the T/C [14] was 86 % of control and the T/C (dose: 400.0 mg/kg/injection, schedule: Q07DX002 (ip), vehicle: saline) was 86 % of control.
With `CCCCCC#CC1OC12CCCCC2` (centres undefined) the T/C [6] was 17 % of control, the T/C [15] was 88 % of control and the T/C [8] was 122 % of control. The T/C [12] was 64 % of control and 66 % of control, the T/C [9] was 91 % of control and the T/C [13] was 24 % of control. The T/C [10] was 169 % of control, the T/C [11] was 103 % of control and the T/C [14] was 38 % of control and 41 % of control.
For `CN(C)S(=O)(=O)CCNC(=O)N(CCCl)N=O`, the T/C (dose: 5.4 mg/kg/injection, schedule: Q07DX002 (oral), vehicle: saline) was 108 % of control, the T/C (dose: 7.5 mg/kg/injection, schedule: Q07DX002 (oral), vehicle: saline with Tween-80) was 65 % of control and the T/C (dose: 9.0 mg/kg/injection, schedule: Q07DX002 (oral), vehicle: saline) was 106 % of control. The T/C (dose: 15.0 mg/kg/injection, schedule: Q07DX002 (oral), vehicle: saline) was 94 % of control and the T/C (dose: 25.0 mg/kg/injection, schedule: Q07DX002 (oral), vehicle: saline) was 18 % of control.
For `Nc1c(C(=O)O)[nH]c(=O)[nH]c1=O`, the T/C [15] was 104 % of control, the T/C [8] was 100 % of control and the T/C [9] was 80 % of control. For the same compound, the T/C [11] was 123 % of control.
In the case of `Nc1n[n+](-c2ccccc2)no1`, the T/C (dose: 3.12 mg/kg/injection, schedule: Q07DX002 (ip), vehicle: water) is reported as 99 % of control and 108 % of control, the T/C (dose: 6.25 mg/kg/injection, schedule: Q07DX002 (ip), vehicle: water) is reported as 85 % of control and 86 % of control and 98 % of control and the T/C [16] is reported as 70 % of control and 74 % of control and 94 % of control.
For `Nc1nc2c(ncn2C2OC(CO)C(O)C2O)c(=O)[nH]1.Nc1nc2c(ncn2C2OC(CO)C(O)C2O)c(=O)[nH]1.[NH2-].[NH2-].[Pt+2]` (centres undefined), the T/C (dose: 12.5 mg/kg/injection, schedule: Q07DX002 (ip), vehicle: water) was 30 % of control, the T/C (dose: 25.0 mg/kg/injection, schedule: Q07DX002 (ip), vehicle: water) was 108 % of control and the T/C [16] was 96 % of control. For the same compound, the T/C (dose: 100.0 mg/kg/injection, schedule: Q07DX002 (ip), vehicle: water) was 248 % of control and the T/C (dose: 200.0 mg/kg/injection, schedule: Q07DX002 (ip), vehicle: water) was 117 % of control.
For `CN=C(N)N/N=C(\C)c1ccc2oc3ccc(/C(C)=N/NC(N)=NC)cc3c2c1`, the T/C [8] was 117 % of control, the T/C [9] was 100 % of control and the T/C [10] was 66 % of control.
In the case of `Cn1c2nc(=O)n(-c3ccccc3)c(=O)c-2nc2c1CCCC2`, the T/C [8] is reported as 72 % of control, the T/C [10] is reported as 70 % of control and 74 % of control and the T/C [11] is reported as 90 % of control.
For `C=C(C)[C@@H]1CCc2c(O)c(O)c(=O)cc(C)c2C1`, the T/C [3] was 102 % of control, the T/C [1] was 64 % of control and the T/C [2] was 85 % of control. For the same compound, the T/C [4] was 96 % of control and the T/C [5] was 102 % of control.
In the case of `COc1cc(C[C@H]2c3cc(OC)c(OC)cc3CCN2C)c(Oc2cc3c(cc2OC)-c2c(OC)c(OC)cc4c2[C@H](C3)N(C)CC4)cc1OC`, the T/C (dose: 25.0 mg/kg/injection, schedule: Q01DX005 (ip), vehicle: saline) is reported as 59 % of control, the T/C (dose: 25.0 mg/kg/injection, schedule: Q04DX003 (ip), vehicle: saline) is reported as 116 % of control and the T/C (dose: 50.0 mg/kg/injection, schedule: Q01DX005 (ip), vehicle: saline) is reported as 198 % of control. For the same compound, the T/C (dose: 50.0 mg/kg/injection, schedule: Q04DX003 (ip), vehicle: saline) was 60 % of control, the T/C (dose: 100.0 mg/kg/injection, schedule: Q01DX005 (ip), vehicle: saline) was 64 % of control and the T/C (dose: 100.0 mg/kg/injection, schedule: Q04DX003 (ip), vehicle: saline) was 76 % of control. For the same compound, the T/C (dose: 200.0 mg/kg/injection, schedule: Q01DX005 (ip), vehicle: saline) was 36 % of control.
